According to the supplement of paper PMC10307832:

Legend:
Assay in all cases: relative viability (nuclei count vs DMSO), 5 days (fraction); higher = more cells survive
[1] = tested on: NCI-H520
Summary of the method: (§1)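 Dosing by pin tool came one day after lung cancer cell lines were seeded in 1536-well plates, using either one drug or a fixed anchor-drug dose plus five library-drug doses (not always all listed) in √10 steps. After 5 days, nuclei were counted on 4× images. Relative viability is treated-well nuclei count divided by vehicle-well nuclei count, and values are medians of duplicate plates.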

[2] = tested on: NCI-H441
Summary of the method: as §1

[3] = tested on: H3255
Summary of the method: as §1

[4] = tested on: ChaGo-K-1
Summary of the method: as §1

[5] = tested on: RERF-LC-KJ
Summary of the method: as §1

[6] = tested on: NCI-H2087
Summary of the method: as §1

[7] = tested on: NCI-H1355
Summary of the method: as §1

[8] = tested on: LC-2-ad
Summary of the method: as §1

[9] = tested on: NCI-H23
Summary of the method: as §1

[10] = tested on: NCI-H1651
Summary of the method: as §1

[11] = tested on: LCLC-103H
Summary of the method: as §1

[12] = tested on: COR-L 105
Summary of the method: as §1

[13] = tested on: NCI-H2126
Summary of the method: as §1

[14] = tested on: NCI-H322M
Summary of the method: as §1

[15] = tested on: NCI-H647
Summary of the method: as §1

[16] = tested on: NCI-H2085
Summary of the method: as §1

[17] = tested on: COR-L23
Summary of the method: as §1

[18] = tested on: NCI-H1993
Summary of the method: as §1

[19] = tested on: 201T
Summary of the method: as §1

[20] = tested on: HOP-62
Summary of the method: as §1

[21] = tested on: NCI-H2342
Summary of the method: as §1

[22] = tested on: SK-MES-1
Summary of the method: as §1

[23] = tested on: A-427
Summary of the method: as §1

[24] = tested on: HCC-44
Summary of the method: as §1

[25] = tested on: NCI-H1915
Summary of the method: as §1

With Nc1cccc2c1CN(C1CCC(=O)NC1=O)C2=O (configuration not stated) [Lenalidomide] + COc1cccc2cc(-c3nc([C@H]4CC[C@H](C(=O)O)CC4)n4ncnc(N)c34)[nH]c12 [OSI-027] (partner 0.5 µM) as the compound, how does the relative viability ([1]; first compound 0.253 µM) read?
Its relative viability is 0.284.

What about the relative viability ([1]; first compound 0.8 µM) of the same compound?
Its relative viability is 0.25.

And the relative viability ([1]; first compound 2.53 µM)?
The relative viability was 0.311.

And the relative viability ([1]; first compound 8 µM)?
Its relative viability is 0.281.

What about the relative viability ([2]; first compound 0.253 µM) of the same compound?
Its relative viability is 0.485.

And the relative viability ([2]; first compound 0.8 µM)?
Its relative viability is 0.666.

And the relative viability ([2]; first compound 2.53 µM)?
Its relative viability is 0.876.

And the relative viability ([2]; first compound 8 µM)?
The relative viability was 0.631.

What about the relative viability ([3]; first compound 0.253 µM) of the same compound?
Its relative viability is 0.633.

What about the relative viability ([3]; first compound 0.8 µM) of the same compound?
Its relative viability is 0.65.

And the relative viability ([3]; first compound 2.53 µM)?
Its relative viability is 0.55.

And the relative viability ([3]; first compound 8 µM)?
The relative viability was 0.516.

And the relative viability ([4]; first compound 0.253 µM)?
Its relative viability is 0.586.

What about the relative viability ([4]; first compound 0.8 µM) of the same compound?
Its relative viability is 0.441.

What about the relative viability ([4]; first compound 2.53 µM) of the same compound?
The relative viability was 0.656.

What about the relative viability ([4]; first compound 8 µM) of the same compound?
Its relative viability is 0.548.

And the relative viability ([5]; first compound 0.253 µM)?
The relative viability was 0.57.

What about the relative viability ([5]; first compound 0.8 µM) of the same compound?
Its relative viability is 0.615.

What about the relative viability ([5]; first compound 2.53 µM) of the same compound?
Its relative viability is 0.643.

And the relative viability ([5]; first compound 8 µM)?
The relative viability was 0.644.

And the relative viability ([6]; first compound 0.253 µM)?
The relative viability was 0.679.

What about the relative viability ([6]; first compound 0.8 µM) of the same compound?
The relative viability was 0.501.

What about the relative viability ([6]; first compound 2.53 µM) of the same compound?
The relative viability was 0.521.

What about the relative viability ([6]; first compound 8 µM) of the same compound?
The relative viability was 0.712.

And the relative viability ([7]; first compound 0.253 µM)?
The relative viability was 0.449.

And the relative viability ([7]; first compound 2.53 µM)?
Its relative viability is 0.436.

And the relative viability ([7]; first compound 8 µM)?
Its relative viability is 0.362.

What about the relative viability ([8]; first compound 0.253 µM) of the same compound?
Its relative viability is 0.856.

What about the relative viability ([8]; first compound 2.53 µM) of the same compound?
The relative viability was 0.912.

And the relative viability ([8]; first compound 8 µM)?
The relative viability was 0.887.

What about the relative viability ([9]; first compound 0.253 µM) of the same compound?
The relative viability was 0.581.

And the relative viability ([9]; first compound 0.8 µM)?
Its relative viability is 0.499.

What about the relative viability ([9]; first compound 2.53 µM) of the same compound?
Its relative viability is 0.742.

And the relative viability ([9]; first compound 8 µM)?
Its relative viability is 0.502.

What about the relative viability ([10]; first compound 0.253 µM) of the same compound?
Its relative viability is 0.772.

And the relative viability ([10]; first compound 0.8 µM)?
The relative viability was 0.728.

What about the relative viability ([10]; first compound 2.53 µM) of the same compound?
The relative viability was 0.994.

What about the relative viability ([10]; first compound 8 µM) of the same compound?
The relative viability was 0.919.

What about the relative viability ([11]; first compound 0.253 µM) of the same compound?
Its relative viability is 0.433.

What about the relative viability ([11]; first compound 0.8 µM) of the same compound?
The relative viability was 0.433.

And the relative viability ([11]; first compound 2.53 µM)?
The relative viability was 0.512.

What about the relative viability ([11]; first compound 8 µM) of the same compound?
The relative viability was 0.473.

And the relative viability ([12]; first compound 0.253 µM)?
Its relative viability is 0.715.

What about the relative viability ([12]; first compound 0.8 µM) of the same compound?
Its relative viability is 0.632.

And the relative viability ([12]; first compound 2.53 µM)?
Its relative viability is 0.697.

What about the relative viability ([12]; first compound 8 µM) of the same compound?
The relative viability was 0.821.

What about the relative viability ([13]; first compound 0.253 µM) of the same compound?
Its relative viability is 0.66.

What about the relative viability ([13]; first compound 0.8 µM) of the same compound?
The relative viability was 0.609.

And the relative viability ([13]; first compound 2.53 µM)?
The relative viability was 0.663.

What about the relative viability ([13]; first compound 8 µM) of the same compound?
The relative viability was 0.593.

And the relative viability ([14]; first compound 0.253 µM)?
Its relative viability is 0.53.

What about the relative viability ([14]; first compound 0.8 µM) of the same compound?
Its relative viability is 0.527.

And the relative viability ([14]; first compound 2.53 µM)?
Its relative viability is 0.609.

And the relative viability ([14]; first compound 8 µM)?
Its relative viability is 0.558.

What about the relative viability ([15]; first compound 0.253 µM) of the same compound?
The relative viability was 0.587.

And the relative viability ([15]; first compound 0.8 µM)?
Its relative viability is 0.551.

What about the relative viability ([15]; first compound 2.53 µM) of the same compound?
The relative viability was 1.02.

And the relative viability ([15]; first compound 8 µM)?
The relative viability was 0.744.

What about the relative viability ([16]; first compound 0.253 µM) of the same compound?
Its relative viability is 0.818.

And the relative viability ([16]; first compound 0.8 µM)?
Its relative viability is 0.518.

And the relative viability ([16]; first compound 2.53 µM)?
Its relative viability is 0.879.

And the relative viability ([16]; first compound 8 µM)?
The relative viability was 0.784.

What about the relative viability ([17]; first compound 0.253 µM) of the same compound?
The relative viability was 0.781.

And the relative viability ([17]; first compound 0.8 µM)?
Its relative viability is 0.776.

And the relative viability ([17]; first compound 2.53 µM)?
Its relative viability is 0.892.

What about the relative viability ([17]; first compound 8 µM) of the same compound?
Its relative viability is 0.787.

And the relative viability ([18]; first compound 0.253 µM)?
Its relative viability is 0.401.

And the relative viability ([18]; first compound 0.8 µM)?
Its relative viability is 0.572.

What about the relative viability ([18]; first compound 2.53 µM) of the same compound?
The relative viability was 0.593.

What about the relative viability ([18]; first compound 8 µM) of the same compound?
Its relative viability is 0.607.

And the relative viability ([19]; first compound 0.253 µM)?
Its relative viability is 0.767.

And the relative viability ([19]; first compound 0.8 µM)?
Its relative viability is 0.494.

What about the relative viability ([19]; first compound 2.53 µM) of the same compound?
The relative viability was 0.799.

And the relative viability ([19]; first compound 8 µM)?
The relative viability was 0.791.

What about the relative viability ([20]; first compound 0.253 µM) of the same compound?
The relative viability was 0.685.

And the relative viability ([20]; first compound 0.8 µM)?
Its relative viability is 0.802.

What about the relative viability ([20]; first compound 2.53 µM) of the same compound?
Its relative viability is 0.998.

And the relative viability ([20]; first compound 8 µM)?
Its relative viability is 0.789.

What about the relative viability ([21]; first compound 0.253 µM) of the same compound?
Its relative viability is 0.67.

What about the relative viability ([21]; first compound 0.8 µM) of the same compound?
The relative viability was 0.572.

And the relative viability ([21]; first compound 2.53 µM)?
The relative viability was 0.57.

What about the relative viability ([21]; first compound 8 µM) of the same compound?
Its relative viability is 0.626.

And the relative viability ([22]; first compound 0.253 µM)?
The relative viability was 0.573.

And the relative viability ([22]; first compound 0.8 µM)?
Its relative viability is 0.703.

And the relative viability ([22]; first compound 2.53 µM)?
The relative viability was 0.63.

And the relative viability ([22]; first compound 8 µM)?
The relative viability was 0.613.

And the relative viability ([23]; first compound 0.253 µM)?
The relative viability was 0.48.

What about the relative viability ([23]; first compound 0.8 µM) of the same compound?
Its relative viability is 0.387.

And the relative viability ([23]; first compound 2.53 µM)?
Its relative viability is 0.473.

What about the relative viability ([23]; first compound 8 µM) of the same compound?
Its relative viability is 0.514.

What about the relative viability ([24]; first compound 0.253 µM) of the same compound?
The relative viability was 0.636.

What about the relative viability ([24]; first compound 2.53 µM) of the same compound?
The relative viability was 0.535.

What about the relative viability ([24]; first compound 8 µM) of the same compound?
The relative viability was 0.512.

What about the relative viability ([25]; first compound 0.253 µM) of the same compound?
Its relative viability is 0.61.

What about the relative viability ([25]; first compound 0.8 µM) of the same compound?
Its relative viability is 0.653.

What about the relative viability ([25]; first compound 2.53 µM) of the same compound?
The relative viability was 0.646.

And the relative viability ([25]; first compound 8 µM)?
Its relative viability is 0.615.
